Where two headings read alike, the source gives them in different places.
Target: T1, recombinant human PAI-1 (Homo sapiens, UniProt P05121)
T1 construct: purchased Molecular Innovations, Inc
Experiment: Test Example 2: human PAI-1 inhibitory activity (tPA fluorogenic substrate, pH 7.4 HEPES buffer)
Type: biochemical
Protocol: 0.1 M HEPES, 0.1 M NaCl. 1 mM EDTA. 0.1% Polyethylene glycol 8,000 (Hampton Research Corporation),
2 mM Dimethyldecylphoshine oxide [Apo-10] (Fluka Corporation)

[1] = human PAI-1, compound concentration 0.1 μM
[2] = human PAI-1, compound concentration 0.3 μM
[3] = human PAI-1, compound concentration 1 μM
[4] = human PAI-1, compound concentration 3 μM
[5] = human PAI-1, compound concentration 10 μM
[6] = human PAI-1, compound concentration 25 μM
[7] = human PAI-1, calculated from the inhibition rates
[8] = read-out: Inhibition Rate of PAI-1 Activity (%)
[9] = human PAI-1, compound concentration 0.1 μM, 0.1 µM
[10] = human PAI-1, compound concentration 1 μM, 1 µM

T1 sequence (P05121 24-402): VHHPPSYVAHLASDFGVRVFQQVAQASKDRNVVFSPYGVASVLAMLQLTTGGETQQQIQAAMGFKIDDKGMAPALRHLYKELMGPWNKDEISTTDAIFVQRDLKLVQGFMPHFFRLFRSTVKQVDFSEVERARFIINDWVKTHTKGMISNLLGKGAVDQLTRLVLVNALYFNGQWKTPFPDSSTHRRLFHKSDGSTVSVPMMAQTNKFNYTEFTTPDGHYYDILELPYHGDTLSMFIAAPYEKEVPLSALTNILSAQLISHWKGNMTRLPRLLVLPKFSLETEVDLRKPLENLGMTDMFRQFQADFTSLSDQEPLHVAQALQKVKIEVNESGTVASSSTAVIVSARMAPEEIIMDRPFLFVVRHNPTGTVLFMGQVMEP

CC(C)(C)c1ccc(Sc2cc(-c3ccc(OC(F)(F)F)cc3)ccc2C(=O)C(=O)O)cc1 [Compound 548]
Inhibition Rate of PAI-1 Activity (%) [1]: 0% | Inhibition Rate of PAI-1 Activity (%) [2]: 16% | Inhibition Rate of PAI-1 Activity (%) [3]: 95% | Inhibition Rate of PAI-1 Activity (%) [4]: >99%

CCCCCOc1cc(-c2ccc(OC(F)(F)F)cc2)ccc1CN(C(=O)C(=O)O)c1ccc(C(C)(C)C)cc1 [Compound 648]
Inhibition Rate of PAI-1 Activity (%) [1]: 4% | Inhibition Rate of PAI-1 Activity (%) [2]: 23% | Inhibition Rate of PAI-1 Activity (%) [3]: 86% | Inhibition Rate of PAI-1 Activity (%) [4]: 89%

COc1ccc(-c2ccc(OCC(=O)O)c(Oc3ccc(C(C)(C)C)cc3)c2)cc1 [Compound 445]
Inhibition Rate of PAI-1 Activity (%) [1]: 0% | Inhibition Rate of PAI-1 Activity (%) [2]: 1% | Inhibition Rate of PAI-1 Activity (%) [3]: 12% | Inhibition Rate of PAI-1 Activity (%) [4]: 50%

O=C(O)C(=O)N(CCCCc1ccccc1)c1cc(-c2ccc(OC(F)(F)F)cc2)ccc1OC1CCCC1 [Compound 658]
Inhibition Rate of PAI-1 Activity (%) [1]: 9% | Inhibition Rate of PAI-1 Activity (%) [2]: 20% | Inhibition Rate of PAI-1 Activity (%) [3]: 97% | Inhibition Rate of PAI-1 Activity (%) [4]: >99%

O=C(O)CCc1cc(-c2ccc(OC(F)(F)F)cc2)ccc1OCCCCCOc1ccc(-c2ccc(OC(F)(F)F)cc2)cc1CCC(=O)O [Compound 544]
Inhibition Rate of PAI-1 Activity (%) [1]: 0% | Inhibition Rate of PAI-1 Activity (%) [2]: 3% | Inhibition Rate of PAI-1 Activity (%) [3]: 56% | Inhibition Rate of PAI-1 Activity (%) [4]: 92%

CC(C)(C)c1ccc(Oc2cc(-c3ccc4ccccc4c3)ccc2CCC(=O)O)cc1 [Compound 470]
Inhibition Rate of PAI-1 Activity (%) [1]: 3% | Inhibition Rate of PAI-1 Activity (%) [2]: 16% | Inhibition Rate of PAI-1 Activity (%) [3]: 87% | Inhibition Rate of PAI-1 Activity (%) [4]: >99%

CCC(C)(C)c1ccc(Oc2cc(-c3ccc(OC(F)(F)F)cc3)ccc2CCC(=O)O)cc1 [Compound 475]
Inhibition Rate of PAI-1 Activity (%) [1]: 4% | Inhibition Rate of PAI-1 Activity (%) [2]: 27% | Inhibition Rate of PAI-1 Activity (%) [3]: 94% | Inhibition Rate of PAI-1 Activity (%) [4]: >99%

CC(C)(C)c1ccc(CN(C(=O)CCCC(=O)O)c2ccc(-c3ccc(OC(F)(F)F)cc3)cc2)cc1 [Compound 604]
Inhibition Rate of PAI-1 Activity (%) [3]: 0% | Inhibition Rate of PAI-1 Activity (%) [4]: 20% | Inhibition Rate of PAI-1 Activity (%) [5]: 36% | Inhibition Rate of PAI-1 Activity (%) [6]: 46%

O=C(O)C(=O)N(CCCCc1ccccc1)c1cc(-c2ccc(OC(F)(F)F)cc2)ccc1OCCCC1CCCC1 [Compound 355]
IC50 [7]: 640 nM

CC(C)c1ccc(-c2ccc(/C=C/C(=O)O)c(Sc3ccc(C(C)(C)C)cc3)c2)cc1 [Compound 520]
Inhibition Rate of PAI-1 Activity (%) [1]: 14% | Inhibition Rate of PAI-1 Activity (%) [2]: 72% | Inhibition Rate of PAI-1 Activity (%) [3]: >99% | Inhibition Rate of PAI-1 Activity (%) [4]: >99%

CC(C)(C)c1ccc(Oc2cc(Oc3ccc(OC(F)(F)F)cc3)ccc2OCC(=O)O)cc1 [Compound 538]
Inhibition Rate of PAI-1 Activity (%) [1]: 0% | Inhibition Rate of PAI-1 Activity (%) [2]: 12% | Inhibition Rate of PAI-1 Activity (%) [3]: 87% | Inhibition Rate of PAI-1 Activity (%) [4]: 98%

CCCCC(Oc1ccc(-c2ccc(OC(F)(F)F)cc2)cc1OCCCCc1ccccc1)C(=O)O (stereo not shown) [Compound 311]
IC50 [7]: 580 nM

CCCCCCCCCCCCCCCOc1ccc(-c2ccc(OC(F)(F)F)cc2)cc1N(CCCCc1ccccc1)C(=O)C(=O)O [Compound 375]
IC50: < 100 nM | inhibition at 1 µM [8]: > 99%

CC(C)(C)C1CCC(CN(C(=O)C(=O)O)c2ccc(-c3ccc(OC(F)(F)F)cc3)cc2)CC1 (stereo not shown) [Compound 679]
Inhibition Rate of PAI-1 Activity (%) [9]: 6% | Inhibition Rate of PAI-1 Activity (%) [2]: 9% | Inhibition Rate of PAI-1 Activity (%) [10]: 84% | Inhibition Rate of PAI-1 Activity (%) [4]: >99%

CC(C)(C)C1CCC(N(C(=O)C(=O)O)c2ccc(-c3ccc(OC(F)(F)F)cc3)cc2)CC1 (stereo not shown) [Compound 665]
Inhibition Rate of PAI-1 Activity (%) [9]: 9% | Inhibition Rate of PAI-1 Activity (%) (human PAI-1, compound concentration 0.3 μM, 0.3 µM): 8% | Inhibition Rate of PAI-1 Activity (%) [10]: 67% | Inhibition Rate of PAI-1 Activity (%) (human PAI-1, compound concentration 3 μM, 3 µM): >99%

O=C(O)COc1cc(Oc2ccc(OC(F)(F)F)cc2)ccc1OCCCCc1ccccc1 [Compound 452]
Inhibition Rate of PAI-1 Activity (%) [1]: 9% | Inhibition Rate of PAI-1 Activity (%) [2]: 8% | Inhibition Rate of PAI-1 Activity (%) [3]: 15% | Inhibition Rate of PAI-1 Activity (%) [4]: 94%

CCCCc1ccc(Oc2cc(-c3ccc(OC(F)(F)F)cc3)ccc2CCC(=O)O)cc1 [Compound 512]
Inhibition Rate of PAI-1 Activity (%) [1]: 18% | Inhibition Rate of PAI-1 Activity (%) [2]: 41% | Inhibition Rate of PAI-1 Activity (%) [3]: 96% | Inhibition Rate of PAI-1 Activity (%) [4]: 98%

COc1ccc(-c2ccc(OC(F)(F)F)cc2)cc1N(CCCCc1ccccc1)C(=O)C(=O)O [Compound 651]
Inhibition Rate of PAI-1 Activity (%) [1]: 0% | Inhibition Rate of PAI-1 Activity (%) [2]: 0% | Inhibition Rate of PAI-1 Activity (%) [3]: 15% | Inhibition Rate of PAI-1 Activity (%) [4]: 74%

CC(C)c1ccc(-c2ccc(CCC(=O)O)c(Oc3ccc(C(C)(C)C)cc3)c2)cc1 [Compound 519]
Inhibition Rate of PAI-1 Activity (%) [1]: 1% | Inhibition Rate of PAI-1 Activity (%) [2]: 19% | Inhibition Rate of PAI-1 Activity (%) [3]: >99% | Inhibition Rate of PAI-1 Activity (%) [4]: >99%

CCCCC(Nc1cc(-c2ccc(OC(F)(F)F)cc2)ccc1Oc1ccc(C(C)(C)C)cc1)C(=O)O (stereo not shown) [Compound 423]
Inhibition Rate of PAI-1 Activity (%) [1]: 1% | Inhibition Rate of PAI-1 Activity (%) [2]: 1% | Inhibition Rate of PAI-1 Activity (%) [3]: 74% | Inhibition Rate of PAI-1 Activity (%) [4]: 96%

CCCCCCCOc1cc(-c2ccc(OC(F)(F)F)cc2)ccc1N(CCCCc1ccccc1)C(=O)C(=O)O [Compound 386]
IC50: 470 nM | inhibition at 1 µM [8]: > 99% | inhibition at 3 µM [8]: > 99%

CC(C)(C)c1ccc(Oc2ccc(-c3cccc(C(F)(F)F)c3)cc2OCC(=O)O)cc1 [Compound 314]
IC50 [7]: 1860 nM

CCCCCOc1cc(-c2ccc(OC(F)(F)F)cc2)ccc1CN(CC(=O)O)c1ccc(C(C)(C)C)cc1 [Compound 649]
Inhibition Rate of PAI-1 Activity (%) [1]: 10% | Inhibition Rate of PAI-1 Activity (%) [2]: 64% | Inhibition Rate of PAI-1 Activity (%) [3]: 96% | Inhibition Rate of PAI-1 Activity (%) [4]: 97%

CCCCCCCCCOc1ccc(-c2ccc(OC(F)(F)F)cc2)cc1N(CCCCc1ccccc1)C(=O)C(=O)O [Compound 364]
IC50: 110 nM

CCCCCOc1ccc(-c2ccc(OC(F)(F)F)cc2)cc1N(CCCCC)C(=O)C(=O)O [Compound 366]
IC50: 1060 nM

CC(C)(C)c1ccc(Oc2cc(Nc3ccc(OC(F)(F)F)cc3)ccc2CCC(=O)O)cc1 [Compound 532]
Inhibition Rate of PAI-1 Activity (%) [1]: 12% | Inhibition Rate of PAI-1 Activity (%) [2]: 59% | Inhibition Rate of PAI-1 Activity (%) [3]: >99% | Inhibition Rate of PAI-1 Activity (%) [4]: >99%

CC(C)(C)c1ccc(N(CC(=O)O)c2ccccc2Oc2ccc(OC(F)(F)F)cc2)cc1 [Compound 610]
Inhibition Rate of PAI-1 Activity (%) [3]: 49% | Inhibition Rate of PAI-1 Activity (%) [4]: 94% | Inhibition Rate of PAI-1 Activity (%) [5]: 97% | Inhibition Rate of PAI-1 Activity (%) [6]: 86%

CC(C)(C)c1ccc(Oc2ccc(-c3ccc(OC(F)(F)F)cc3)cc2OCC(=O)O)cc1 [Compound 302]
IC50 [7]: 1700 nM

O=C(O)C(=O)N(CCCCc1ccccc1)c1cc(-c2ccc(OC(F)(F)F)cc2)ccc1OC1CCCCCC1 [Compound 659]
Inhibition Rate of PAI-1 Activity (%) [1]: 12% | Inhibition Rate of PAI-1 Activity (%) [2]: 26% | Inhibition Rate of PAI-1 Activity (%) [3]: >99% | Inhibition Rate of PAI-1 Activity (%) [4]: 96%

CC(C)(C)c1ccc(Oc2cc(-c3ccc(OC(F)(F)F)cc3)ccc2/C=C\C(=O)O)cc1 [Compound 450]
Inhibition Rate of PAI-1 Activity (%) [1]: 9% | Inhibition Rate of PAI-1 Activity (%) [2]: 11% | Inhibition Rate of PAI-1 Activity (%) [3]: 58% | Inhibition Rate of PAI-1 Activity (%) [4]: 98%

CCCCC(Oc1ccc(-c2cccc(C)c2)cc1Oc1ccc(C(C)(C)C)cc1)C(=O)O (stereo not shown) [Compound 321]
IC50 [7]: 600 nM

CC(C)c1ccc(Oc2cc(-c3ccc(OC(F)(F)F)cc3)ccc2/C=C/C(=O)O)cc1 [Compound 509]
Inhibition Rate of PAI-1 Activity (%) [1]: 1% | Inhibition Rate of PAI-1 Activity (%) [2]: 22% | Inhibition Rate of PAI-1 Activity (%) [3]: 96% | Inhibition Rate of PAI-1 Activity (%) [4]: >99%

CC(C)(C)c1ccc(CN(C(=O)C(=O)O)c2ccc(C(=O)Nc3ccc(OC(F)(F)F)cc3)cc2)cc1 [Compound 617]
Inhibition Rate of PAI-1 Activity (%) [3]: 6% | Inhibition Rate of PAI-1 Activity (%) [4]: 64% | Inhibition Rate of PAI-1 Activity (%) [5]: >99% | Inhibition Rate of PAI-1 Activity (%) [6]: >99%

CCCCCN(C(=O)C(=O)O)c1cc(-c2ccc(OC(F)(F)F)cc2)ccc1OCCCOc1ccccc1 [Compound 657]
Inhibition Rate of PAI-1 Activity (%) [1]: 15% | Inhibition Rate of PAI-1 Activity (%) [2]: 20% | Inhibition Rate of PAI-1 Activity (%) [3]: 99% | Inhibition Rate of PAI-1 Activity (%) [4]: >99%

CC(C)(C)c1ccc(Oc2cc(Nc3ccc(OC(F)(F)F)cc3)ccc2/C=C/C(=O)O)cc1 [Compound 531]
Inhibition Rate of PAI-1 Activity (%) [1]: 3% | Inhibition Rate of PAI-1 Activity (%) [2]: 38% | Inhibition Rate of PAI-1 Activity (%) [3]: 94% | Inhibition Rate of PAI-1 Activity (%) [4]: 96%

CCCCCCCCCCCCCCCOc1cc(-c2ccc(OC(F)(F)F)cc2)ccc1N(CCCCc1ccccc1)C(=O)C(=O)O [Compound 385]
IC50: < 100 nM | inhibition at 0.3 µM [8]: > 99% | inhibition at 1 µM [8]: > 99% | inhibition at 3 µM [8]: > 99%

CCCCC(Oc1cc(-c2ccc(OC(F)(F)F)cc2)ccc1Oc1ccc(C(C)(C)C)cc1)C(=O)O (stereo not shown) [Compound 303]
IC50 [7]: 540 nM

CCCCC(Oc1cc(-c2cccc(C(F)(F)F)c2)ccc1Oc1ccc(C(C)(C)C)cc1)C(=O)O (stereo not shown) [Compound 318]
IC50 [7]: 580 nM

CC(C)(C)c1ccc(Oc2cc(-c3ccc(C(C)(C)C)cc3)ccc2OCC(=O)O)cc1 [Compound 446]
Inhibition Rate of PAI-1 Activity (%) [1]: 3% | Inhibition Rate of PAI-1 Activity (%) [2]: 13% | Inhibition Rate of PAI-1 Activity (%) [3]: 84% | Inhibition Rate of PAI-1 Activity (%) [4]: >99%

CC(C)(C)OCCOc1ccc(-c2ccc(OC(F)(F)F)cc2)cc1N(CCCCc1ccccc1)CC(=O)O [Compound 644]
Inhibition Rate of PAI-1 Activity (%) [1]: 27% | Inhibition Rate of PAI-1 Activity (%) [2]: 8% | Inhibition Rate of PAI-1 Activity (%) [3]: 30% | Inhibition Rate of PAI-1 Activity (%) [4]: 93%
